Data set [1] concerns the target T1, hTRPV3 (Homo sapiens (Human), UniProt Q8NET8). Nature of the data set: Semi-auto patch clamp recording in nHEK cells (WT or TRPV3-mu transfected). It counts as cell-based. As for the experimental part: Compounds were tested at room temperature using the whole-cell patch clamp technique with a HEKA EPC 10 usb patch-clamp amplifier (HEKA Elektronik, Germany). Output signals from the amplifier were digitized and recorded with PatchMaster (v2x90.5 HEKA Elektronik, Germany). For quality control, the minimum seal resistance was set at 100 MΩ, and the outward current was stabilized with at least 1 nA of rectifying current at +80 mV while the inward current was stabilized with at least 300 pA of rectifying current at −80 mV.
NPC-1 Chips (Nanion, Germany) were used to trap a single cell. For both WT or transfected cells, chips of the categories 2-3 MOhm and 3-5 MOhm were used. Chips are disposable and each recording required a new chip. 5 μl of internal solution was applied in the inner pore of the chip, then it was screwed on top of the inner electrode. The upper unit of the patch lamp device was assembled over the chip, and 15 μl external buffer were added between the chip pore and the external electrode.
Basal nHEK cells at Passage 2 or 3 and at the density of 70-90% confluency were used for patch clamp or transfection. For patch-clamp, cells were suspended in TrypLE enzyme for 5 min in 37° C., and then harvested using KBM-Gold media. Cells were then centrifuged for 5 min at 110 g RT. Supernatant was then removed, and cells were re-suspended in the KBM-Gold media and maintained at RT until patch-clamp. After patch clamp system was initialized, and once cell was capture on the chip, media was washed together with free cells, and replaced by external buffer. For TRPV3-mu transfected cells, cells were maintained in KBM-Gold media containing 3 uM of the tested antagonist.
nHEK cells were transfected according to SOP KP-Lab-001.For patch clamp, cells were seeded in 12 well plate and harvested 24 hours after transfection according to the SOP section 2.8.2 “Cell preparation for patch clamp”.
For WT nHEK cells, the “intermediate protocol” in the semi-automatic Port-a-Patch device software was selected based on the parameters: initial sealing, measured by resistance, and its ability to maintain sealing along with assay.
The procedure was started with the “Startup procedure” protocol that validates chip contact and adjusts offset, then after the system was ready, 5 μl of cells suspended in extracellular buffer was added and the intermediate protocol was automatically launched.
When a cell was trapped by vacuum, the value “v-membrane” was raised by 100%, then 15 μl of sealing solution was added. The procedure continued automatically through all its steps until the final step “maintain the whole-cell”. At this step, the sealing solution was washed using three 20 μl washes with an external buffer, and the values C-fast and C-slow were adjusted twice using the “Auto E” buttons.
The sensitivity of reading was adjusted by changing the gain from 2.0 to 0.5.
To initiate recording, the “Ramp” protocol was initiated, and currents were recorded for several minutes until the signal remained stable for both inward and outward currents.
For TRPV3-mu transfected nHEK cells, a similar procedure was used, but with “Fragile protocol”, and the addition of the antagonist at the step of sealing.
Nanion's system automatically maintained cells in the holding potential of −40 mV. Then the voltage was ramped from […] for 160 ms. Finally, the voltage was stepped back to the holding potential (−40 mV). This voltage command protocol was repeated in cycles of 400 ms (FIG. 1).
The solution was then gently mixed and current recording resumed.
Within each cellular recording, the percent of control values were calculated for each test compound concentration-current response based on peak current in the presence of the agonist and full response.
(Patch clamp records ionic current or voltage across a cell membrane.)
Target sequence in this assay (Q8NET8 whole entry, looked up): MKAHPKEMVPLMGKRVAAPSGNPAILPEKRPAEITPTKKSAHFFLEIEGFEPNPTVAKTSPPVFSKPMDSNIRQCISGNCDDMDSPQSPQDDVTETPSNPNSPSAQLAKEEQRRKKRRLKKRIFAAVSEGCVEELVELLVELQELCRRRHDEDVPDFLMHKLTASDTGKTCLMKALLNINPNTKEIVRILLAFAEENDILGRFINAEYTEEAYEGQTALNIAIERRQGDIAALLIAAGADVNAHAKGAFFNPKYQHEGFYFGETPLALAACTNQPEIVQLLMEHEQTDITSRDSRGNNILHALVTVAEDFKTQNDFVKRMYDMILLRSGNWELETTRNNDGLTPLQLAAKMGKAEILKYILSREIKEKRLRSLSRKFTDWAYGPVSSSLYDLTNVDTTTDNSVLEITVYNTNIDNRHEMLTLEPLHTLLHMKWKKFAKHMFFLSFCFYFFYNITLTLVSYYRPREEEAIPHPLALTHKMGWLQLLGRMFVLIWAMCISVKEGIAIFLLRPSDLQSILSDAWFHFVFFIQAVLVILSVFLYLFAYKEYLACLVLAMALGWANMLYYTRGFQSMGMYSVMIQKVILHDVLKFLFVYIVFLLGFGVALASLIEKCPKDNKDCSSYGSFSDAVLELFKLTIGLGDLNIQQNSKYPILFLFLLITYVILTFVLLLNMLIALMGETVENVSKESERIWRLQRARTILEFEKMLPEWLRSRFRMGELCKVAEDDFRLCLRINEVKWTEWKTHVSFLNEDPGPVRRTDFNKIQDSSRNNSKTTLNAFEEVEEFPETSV

Data set [2] is described as follows: Metabolic Stability assay, rat liver microsomes. The conditions noted are these: read-out: LM T1/2 (min) rat. It counts as in vitro ADME. Put shortly: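 Reactions in human or rat liver microsomes at 37 °C were started with an NADPH-regenerating system, using 1 μM compound initially. Samples were taken at 0, 7, 15, 30 and 60 min, quenched in ice-cold acetonitrile/MeOH/H2O, and quantified by HPLC/MS/MS.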
On the technique in general: Liver microsomes are a subcellular fraction often used to study metabolism.

Data set [3] deals with human hERG channels (Homo sapiens (Human), UniProt Q12809). The data set is described as follows: hERG assay (patch clamp, CHO cells). It counts as cell-based. The protocol: hERG assay: Briefly, cells from a stable CHO cell line expressing human hERG channels were plated onto glass coverslips and used in patch clamp assays on the same day. After seal formation and break-in to whole-cell configuration, voltage steps were applied as follows: from the holding potential of −90 mV, a 2 second long step to +40 mV was applied, followed by a 1.5 second step to −50 mV. These steps were applied once every 5 seconds. The hERG current was measured at the peak of the outward tail current at −50 mV. The pipette solution was potassium aspartate based and the external solution was normal Ringer's.
All currents were recorded in whole-cell configuration using an Axopatch 200B controlled by pClamp 10 software (Molecular Devices). In each cell, when the current stabilized, the compound was perfused locally onto the cell. Two to three concentrations of the test compound were applied to each cell. At the end of compound testing, 10 μM verapamil was applied to completely block hERG currents and assess leak current.
Data were analyzed by computing the degree of current block after compound addition compared with the unblocked current amplitude. The unblocked current was predicted from the interpolation between the current amplitude prior to compound addition and after compound washout. The resulting percent block at each concentration was used to make a concentration-response plot and fitted to the Hill equation: percent block=minimum block+(maximum block-minimum block)/(1+10^(Hill slope*(log IC50−concentration))).
In general terms: The hERG channel carries a current that helps repolarise heart muscle cells.

A short description of data set [4]: Aqueous solubility assay in Normal Ringer Solution. The settings on record: Normal Ringer Solution, saline or isotonic, kinetic from dmso stock. The protocol:
Following vortex and incubation for a sufficient time (e.g. 40 minutes at room temperature), solutions were filtered, quenched with acetonitrile, and analyzed by Liquid Chromotography. Solubility Limits were determined by comparison to a standard curve.

Data set [5] concerns the target T1, hTRPV3. The data set is described as follows: Whole-cell patch clamp, hTRPV3 Phase 1 / Phase 2 currents. It counts as cell-based. The conditions noted are these: Phase 1 current. Put shortly:
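Currents are activated by 20 μM 2-APB or by perfusate at 28 °C or warmer, in Ringer's solution, and quantified at ±80 mV.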
Target sequence in this assay (Q8NET8 whole entry): as the sequence (Q8NET8 whole entry, looked up) above

Setting [6] is: human TRPV3, read-out: hTRPV3 (nM) Phase 1.
[7] abbreviates: inward, whole-cell patch clamp, read-out: hTRPV3 Patch P1 Inwd.

≈ marks a conversion by molar mass, not a printed value. Where two headings read alike, the source gives them in different places. Bounds are passed on as bounds.

human hERG channels, sequence (Q12809 whole entry): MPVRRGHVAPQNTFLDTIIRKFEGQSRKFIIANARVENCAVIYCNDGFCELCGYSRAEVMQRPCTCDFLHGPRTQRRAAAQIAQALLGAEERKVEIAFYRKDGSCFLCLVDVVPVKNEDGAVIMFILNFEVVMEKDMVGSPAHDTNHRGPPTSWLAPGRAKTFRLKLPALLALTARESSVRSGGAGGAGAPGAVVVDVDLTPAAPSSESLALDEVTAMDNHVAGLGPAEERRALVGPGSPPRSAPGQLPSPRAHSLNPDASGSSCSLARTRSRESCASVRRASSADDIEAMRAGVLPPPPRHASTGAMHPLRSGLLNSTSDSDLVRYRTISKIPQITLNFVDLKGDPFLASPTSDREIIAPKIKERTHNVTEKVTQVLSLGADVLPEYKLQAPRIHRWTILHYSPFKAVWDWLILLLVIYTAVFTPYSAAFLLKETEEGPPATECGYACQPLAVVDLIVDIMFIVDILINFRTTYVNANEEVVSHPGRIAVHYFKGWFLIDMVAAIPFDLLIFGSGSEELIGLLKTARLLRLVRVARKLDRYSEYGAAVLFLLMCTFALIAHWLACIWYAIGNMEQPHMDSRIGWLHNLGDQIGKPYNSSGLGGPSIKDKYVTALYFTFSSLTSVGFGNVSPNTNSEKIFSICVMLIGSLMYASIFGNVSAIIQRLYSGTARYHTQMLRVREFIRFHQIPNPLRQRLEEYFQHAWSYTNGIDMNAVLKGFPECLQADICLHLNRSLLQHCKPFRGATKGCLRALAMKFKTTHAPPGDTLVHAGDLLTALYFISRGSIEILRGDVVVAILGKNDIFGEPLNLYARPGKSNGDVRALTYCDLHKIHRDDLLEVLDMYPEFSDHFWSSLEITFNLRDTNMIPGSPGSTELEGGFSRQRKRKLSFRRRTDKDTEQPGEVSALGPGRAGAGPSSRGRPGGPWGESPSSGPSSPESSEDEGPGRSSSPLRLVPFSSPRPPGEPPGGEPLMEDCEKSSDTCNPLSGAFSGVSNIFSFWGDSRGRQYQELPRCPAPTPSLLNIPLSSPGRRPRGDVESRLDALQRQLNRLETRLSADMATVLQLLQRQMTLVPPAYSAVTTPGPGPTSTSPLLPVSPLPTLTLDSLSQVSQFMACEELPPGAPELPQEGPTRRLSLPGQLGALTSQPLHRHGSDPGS

`CC(C)c1ccccc1-c1ccc([C@H]2CCN(C(=O)c3ccc(F)cn3)C2)c(CO)c1` (stereo in doubt) [KM-002-E1, (5-Fluoro-pyridin-2-yl)-[3-(3-hydroxymethyl-2′-isopropyl-biphenyl-4-yl)-pyrrolidin-1-yl]-methanone] returned an IC50 in data set [1] of under 10 nM.

In data set [1], `Cc1nc(C(=O)N2CC[C@H](c3ccc(-c4ccccc4C4CC4)cc3CO)C2)ccc1O` (stereo in doubt) [KM-023-E1, [3-(2′-Cyclopropyl-3-hydroxymethyl-biphenyl-4-yl)-pyrrolidin-1-yl]-(5-hydroxy-6-methyl-pyridin-2-yl)-methanone] had an IC50 of under 10 nM.

In data set [1], `COc1cncc(C(=O)N2CC[C@H](c3ccc(-c4ccccc4C4CC4)cc3CO)C2)n1` (stereo in doubt) [KM-031-E1, [3-(2′-Cyclopropyl-3-hydroxymethyl-biphenyl-4-yl)-pyrrolidin-1-yl]-(6-methoxy-pyrazin-2-yl)-methanone] had an IC50 of 10 to 100 nM.

For the compound `Cc1cncc(C(=O)N2CC[C@H](c3ccc(-c4ccccc4C4CC4)cc3CO)C2)n1` (stereo in doubt) [KM-032-E1, [3-(2′-Cyclopropyl-3-hydroxymethyl-biphenyl-4-yl)-pyrrolidin-1-yl]-(6-methyl-pyrazin-2-yl)-methanone], the IC50 in data set [1] lay in the range of 10 to 100 nM.

`COCc1cccc(C(=O)N2CC[C@H](c3ccc(-c4ccccc4C4CC4)cc3CO)C2)n1` (stereo in doubt) [KM-036-E1, [3-(2′-Cyclopropyl-3-hydroxymethyl-biphenyl-4-yl)-pyrrolidin-1-yl]-(6-methoxymethyl-pyridin-2-yl)-methanone] yielded an IC50 in data set [1] of 10 to 100 nM.

On to `CNc1cncc(C(=O)N2CC[C@H](c3ccc(-c4ccccc4C4CC4)cc3CO)C2)n1` (stereo in doubt) [KM-054-E1, [3-(2′-Cyclopropyl-3-hydroxymethyl-biphenyl-4-yl)-pyrrolidin-1-yl]-(6-methylamino-pyrazin-2-yl)-methanone], for which the IC50 in data set [1] is under 10 nM.

Consider `CCOc1ccccc1-c1ccc(C2CCN(C(=O)c3ccc(Cl)cn3)C2)c(CO)c1` (stereo not drawn) [Compound 2-69, (5-chloropyridin-2-yl)(3-(2′-ethoxy-3-(hydroxymethyl)biphenyl-4-yl)pyrrolidin-1-yl)methanone], for which, in data set [2], the half-life at 1 μM was determined as 12.6 min. Further, the IC50 was 12300 nM in data set [3] ((PL), read-out: hERG (nM) (PL)); 25.3 nM in data set [5] (setting [6]); 10 to 100 nM in data set [5] (setting [7]). The solubility at 40 min in data set [4] is over 16 µM.

With `CCc1ccccc1Oc1ccc(C2CCN(C(=O)c3ncccc3Cl)C2)c(CO)c1` (stereo not drawn) [Compound 2-83, (3-chloropyridin-2-yl)(3-(4-(2-ethylphenoxy)-2-(hydroxymethyl)phenyl)pyrrolidin-1-yl)methanone], the half-life at 1 μM in data set [2] was determined as 9.46 min. The IC50 was found to be 16000 nM in data set [3] ((PL), read-out: hERG (nM) (PL)) and 95.1 nM in data set [5] (setting [6]). Moreover, the solubility at 40 min in data set [4] was over 11 µM.

Take `CC(C)c1ccccc1Oc1ccc(C2CC(=O)N(Cc3ccccn3)C2)c(CO)c1` (stereo not drawn) [Compound 2-93, 4-(2-(hydroxymethyl)-4-(2-isopropylphenoxy)phenyl)-1-(pyridin-2-ylmethyl)pyrrolidin-2-one]: the half-life at 1 μM in data set [2] was 5.05 min. Moreover, the IC50 in data set [3] is about 5970 nM; in data set [3] ((M), read-out: hERG), about 10800 nM; in data set [5] (setting [6]), 205 nM; in data set [5] (setting [7]), 100 to 1000 nM. The solubility at 40 min in data set [4] was about 4.2 µM (≈ 1.75 µg/mL).

In the case of `O=C(c1cnccn1)N1CCC(c2ccc(-c3ccccc3C3CC3)cc2CO)C1` (stereo not drawn) [Compound 2-105, (3-(2′-cyclopropyl-3-(hydroxymethyl)biphenyl-4-yl)pyrrolidin-1-yl)(pyrazin-2-yl)methanone], in data set [2], the half-life at 1 μM turned out to be 12.9 min. Also, the IC50 in data set [3] ((PL), read-out: hERG (nM) (PL)) is 11700 nM; in data set [5] (setting [6]) it was 61.2 nM; in data set [5] (setting [7]) it was 10 to 100 nM. In data set [4], this compound came in with a solubility at 40 min of over 21 µM.

In turn, `CC(C)c1ccccc1-c1ccc([C@@H]2CCN(C(=O)c3ccc(F)cn3)C2)c(CO)c1` [KM-002-E2] gave an IC50 in data set [1] of 10 to 100 nM.

In turn, `COCc1cccc(C(=O)N2CCC(c3ccc(-c4ccccc4C4CC4)cc3CO)C2)n1` (stereo not drawn) [KM-036] came in with an IC50 in data set [1] of 10 to 100 nM.

Regarding `CNc1cncc(C(=O)N2CCC(c3ccc(-c4ccccc4C(C)C)cc3CO)C2)n1` (stereo not drawn) [KM-069, [3-(3-Hydroxymethyl-2′-isopropyl-biphenyl-4-yl)-pyrrolidin-1-yl]-(6-methylamino-pyrazin-2-yl)-methanone], in data set [1], the IC50 lay within 10 to 100 nM.

In data set [1], `COCc1cncc(C(=O)N2CCC(c3ccc(-c4ccccc4C4CC4)cc3CO)C2)n1` (stereo not drawn) [KM-070, [3-(2′-Cyclopropyl-3-hydroxymethyl-biphenyl-4-yl)-pyrrolidin-1-yl]-(6-methoxymethyl-pyrazin-2-yl)-methanone] showed an IC50 of 10 to 100 nM.

For the compound `COc1cncc(C(=O)N2CCC(c3ccc(-c4cccc5c4CCC5)cc3CO)C2)n1` (stereo not drawn) [KM-071, [3-(2-Hydroxymethyl-4-indan-4-yl-phenyl)-pyrrolidin-1-yl]-(6-methoxy-pyrazin-2-yl)-methanone], the IC50 in data set [1] was in the range of 10 to 100 nM.

In the case of `Cc1nc(C(=O)N2CCC(c3ccc(-c4ccc(F)cc4C4CC4)cc3CO)C2)ccc1O` (stereo not drawn) [KM-084], in data set [1], the IC50 is 10 to 100 nM.

`Cc1nc(C(=O)N2CCC(c3ccc(-c4cc(F)ccc4C4CC4)cc3CO)C2)ccc1O` (stereo not drawn) [KM-085]: in data set [1], the IC50 was under 10 nM.

The term solubility denotes the dissolved amount per volume that the medium holds. Read a high solubility as a readily soluble substance.
